Experimental data reported in US6919464B1, “Synthetic derivatives of 21-butenyl and related spinosyns” (Dow AgroSciences LLC, priority 2001, dated 2005).

Key:
Format in all cases: in vivo
Heliothis virescens [1] = experiment: Tobacco Budworm (Heliothis virescens) topical assay
Description: An additional measure of the relative insecticidal activities of the compounds of the invention was generated by using a 1 ug/ul acetone solution of each compound applied at 1 ug/larva of laboratory-reared Heliothis virescens larvae (mean weight of 22 mg). Each compound was applied along the dorsum of each of six larvae. Treated larvae were then held for two days at 21° C., 60% RH in six-well plastic culture plates. Larvae were each supplied with a 1 cm^3 of agar-based lepidoptera diet for sustenance during the two-day post-exposure interval. Percent mortality was determined at the end of a two-day period.

Heliothis virescens [2] = experiment: Tobacco Budworm (Heliothis virescens) feeding assay, cotton leaf-dip; conditions: second instar larvae; for mortality at 1.56 ppm / mortality at 400 ppm: Heliothis virescens, 96 h; for mortality at 1.56 ppm: rate 1.56 ppm
Text: To compare insecticidal activities of compounds of the invention against second instar larval Heliothis virescens leaf-dip bioassay was used. Cotton cotyledon leaves were dipped in a test solution made up of the compound dissolved in acetone: Millipore water (2:1) at rates of 400 ppm to 1.56 ppm. Each cotyledon was placed individually on top of a moistened (distilled water) cotton ball in the bottom of a 1 oz plastic cup and allowed to dry (one hour). After drying, a single laboratory-reared second instar Heliothis virescens larva (mean weight 15 mg.) was placed on the treated leaf and the cup sealed with a lid, and held at 27° C. for four days. Percent mortality was determined at the end of the holding period.

Aphis gossypii = experiment: Cotton Aphid (Aphis gossypii) assay, spray on squash seedlings; conditions: rate 50 ppm, relative to plants sprayed with solvent only; for mortality at 50 ppm: Aphis gossypii, 72 h
Description: Insecticidal activities of the compounds of the invention were also evaluated against cotton aphids (Aphis gossyppi) as follows. Summer crookneck squash seedlings at the expanded cotyledon stage are primed to a single cotyledon and infested with cotton aphids 16-24 hours before application of the test material by transfer of infested foliage cut from a stock colony. Immediately prior to spray application of the test material, the transfer foliage is removed from the squash plants. The test material is dissolved at 1 mg/ml in 90:10 acetone:alcohol, then diluted in water containing 0.05% Tween 20 (polyethylene (20) sorbitan monolaurate) to give test solution at a concentration of 50 ppm. The plants were sprayed with the test solution using an atomizing sprayer at 17 psi. Both surfaces of the cotyledons are covered until runnoff, and then allowed to dry. Activity of the compound was determined at three days after treatment. Activity was rated as a percent based on the number of aphids present in plants sprayed with solvent only.

5,6,22,23-tetrahydro-for-(3′,4′-methylenedioxyrham)-I [Compound A26]
Tobacco Budworm Typical (48 h) Mortality (%) (Heliothis virescens [1]; in vivo): 83%

CC/C=C/[C@H]1CCC[C@H](OC2CC[C@H](N(C)C)[C@@H](C)O2)[C@@H](C)C(=O)C2=CC3C(C=CC4C[C@@H](O[C@@H]5O[C@@H](C)[C@H](OC)[C@@H](OC)[C@H]5OCC)CC43)C2CC(=O)O1 (stereo partly drawn) [Compound A1, for-(2′-O-ethylrham)-I]
mortality at 1.56 ppm (Heliothis virescens [2]): 100% | mortality at 50 ppm (Aphis gossypii): 87%

CC/C=C/[C@H]1CCC[C@H](OC2CC[C@H](N(C)C)[C@@H](C)O2)[C@@H](C)C(=O)C2=CC3C(C=CC4C[C@@H](O[C@@H]5O[C@@H](C)[C@H](OC)[C@@H](OCC)[C@H]5OC)CC43)C2CC(=O)O1 (stereo partly drawn) [Compound A2, for-(3′-O-ethylrham)-I]
mortality at 1.56 ppm (Heliothis virescens [2]): 100% | Tobacco Budworm Typical (48 h) Mortality (%) (Heliothis virescens [1]; in vivo): 100% | mortality at 50 ppm (Aphis gossypii): 97%

CC/C=C/[C@H]1CCC[C@H](OC2CC[C@H](N(C)C)[C@@H](C)O2)[C@@H](C)C(=O)C2=CC3C(C=CC4C[C@@H](O[C@@H]5O[C@@H](C)[C@H](OCC)[C@@H](OCC)[C@H]5OC)CC43)C2CC(=O)O1 (stereo partly drawn) [Compound A3, for-(3′,4′-bis-O-ethylrham)-I]
Tobacco Budworm Typical (48 h) Mortality (%) (Heliothis virescens [1]; in vivo): 67%

CCOC(C)/C=C/[C@H]1CCC[C@H](OC2CC[C@H](N(C)C)[C@@H](C)O2)[C@@H](C)C(=O)C2=CC3C(C=CC4C[C@@H](O[C@@H]5O[C@@H](C)[C@H](OC)[C@@H](OC)[C@H]5OC)CC43)C2CC(=O)O1 (stereo partly drawn) [Compound A4, (24-O-thyl) for-rham-I]
mortality at 400 ppm (Heliothis virescens [2]; rate 400 ppm): 100% | mortality at 50 ppm (Aphis gossypii): 99%

CC/C=C/[C@H]1CCC[C@H](OC2CC[C@H](N(C)C)[C@@H](C)O2)[C@@H](C)C(=O)C2=CC3C(C=CC4C3C[C@H](O[C@@H]3O[C@@H](C)[C@H](OC)[C@@H](OC)[C@H]3OC)[C@H]4OCC)C2CC(=O)O1 (stereo partly drawn) [Compound A5, (8-O-ethyl)-for-rham-III]
mortality at 400 ppm (Heliothis virescens [2]; rate 400 ppm): 100% | mortality at 50 ppm (Aphis gossypii): 53%

CC/C=C/[C@H]1CCC[C@H](OC2CC[C@H](N(C)C)[C@@H](C)O2)[C@@H](C)C(=O)C2=CC3C(C=CC4C[C@@H](O[C@@H]5O[C@@H](C)[C@H](OC)[C@@H](OCCC)[C@H]5OC)CC43)C2CC(=O)O1 (stereo partly drawn) [Compound A6, for-(3′-O-n-propylrham)-I]
Tobacco Budworm Typical (48 h) Mortality (%) (Heliothis virescens [1]; in vivo): 100% | mortality at 50 ppm (Aphis gossypii): 54%

CCCC[C@H]1CCC[C@H](O[C@H]2CC[C@H](N(C)C)[C@@H](C)O2)[C@@H](C)C(=O)C2=CC3C4C[C@H](O[C@@H]5O[C@@H](C)[C@H](O)[C@@H](OC)[C@H]5OC)CC4CCC3C2CC(=O)O1 (stereo partly drawn) [Compound A14, 5,6,22,23-tetrahydro for-(4′-O-desmethylrham)-I]
Tobacco Budworm Typical (48 h) Mortality (%) (Heliothis virescens [1]; in vivo): 83% | mortality at 50 ppm (Aphis gossypii): 92%

CCCCC1CCCC(OC2CCC(N(C)C)C(C)O2)C(C)C(=O)C2=CC3C4CC(OC5OC(C)C(OC)C(OCC)C5OC)CC4CCC3C2CC(=O)O1 (stereo not drawn) [Compound A15]
Tobacco Budworm Feeding (96 h) Mortality (%) (Heliothis virescens [2]; rate 6.25 ppm): 100% | Cotton Aphid mortality (72 h) Mortality (%) (Aphis gossypii): 100%

CCCCC1CCCC(OC2CCC(N(C)C)C(C)O2)C(C)C(=O)C2=CC3C4CC(OC5OC(C)C(OC)C(OCCC)C5OC)CC4CCC3C2CC(=O)O1 (stereo not drawn) [Compound A16]
Tobacco Budworm Feeding (96 h) Mortality (%) (Heliothis virescens [2]; rate 6.25 ppm): 100% | Cotton Aphid mortality (72 h) Mortality (%) (Aphis gossypii): 100%

CCOC(C)C=CC1CCCC(OC2CCC(N(C)C)C(C)O2)C(C)C(=O)C2=CC3C(C=CC4CC(OC5OC(C)C(OC)C(OCC)C5OC)CC43)C2CC(=O)O1 (stereo not drawn) [Compound A19]
Tobacco Budworm Feeding (96 h) Mortality (%) (Heliothis virescens [2]; rate 400 ppm): 100% | Cotton Aphid mortality (72 h) Mortality (%) (Aphis gossypii): 99%

CCCOC(C)C=CC1CCCC(OC2CCC(N(C)C)C(C)O2)C(C)C(=O)C2=CC3C(C=CC4CC(OC5OC(C)C(OC)C(OCCC)C5OC)CC43)C2CC(=O)O1 (stereo not drawn) [Compound A20]
Tobacco Budworm Feeding (96 h) Mortality (%) (Heliothis virescens [2]; rate 400 ppm): 100% | Cotton Aphid mortality (72 h) Mortality (%) (Aphis gossypii): 99%

CCCCOC(C)/C=C/C1CCC[C@H](O[C@H]2CC[C@H](N(C)C)[C@@H](C)O2)[C@@H](C)C(=O)C2=CC3C(C=CC4C[C@@H](O[C@@H]5O[C@@H](C)[C@H](OC)[C@@H](OCCCC)[C@H]5OC)CC43)C2CC(=O)O1 (stereo partly drawn) [Compound A21, (24-O-n-butyl)-for-(3′-O-n-butylrham)-I]
mortality at 400 ppm (Heliothis virescens [2]; rate 400 ppm): 100% | mortality at 50 ppm (Aphis gossypii): 59%

CCC=CC1CCCC(OC2CCC(N(C)C)C(C)O2)C(C)C(=O)C2=CC3C4CC(OC5OC(C)C(OC)C(OCC)C5OC)CC4CCC3C2CC(=O)O1 (stereo not drawn) [Compound A22]
Tobacco Budworm Feeding (96 h) Mortality (%) (Heliothis virescens [2]; rate 400 ppm): 100% | Cotton Aphid mortality (72 h) Mortality (%) (Aphis gossypii): 99%

CCC=CC1CCCC(OC2CCC(N(C)C)C(C)O2)C(C)C(=O)C2=CC3C4CC(OC5OC(C)C(OC)C(OCCC)C5OC)CC4CCC3C2CC(=O)O1 (stereo not drawn) [Compound A23]
Tobacco Budworm Feeding (96 h) Mortality (%) (Heliothis virescens [2]; rate 400 ppm): 100% | Cotton Aphid mortality (72 h) Mortality (%) (Aphis gossypii): 100%

CCC=CC1CCCC(OC2CCC(N(C)C)C(C)O2)C(C)C(=O)C2=CC3C4CC(OC5OC(C)C(OC)C(OCCCC)C5OC)CC4CCC3C2CC(=O)O1 (stereo not drawn) [Compound A24]
Tobacco Budworm Feeding (96 h) Mortality (%) (Heliothis virescens [2]; rate 400 ppm): 100% | Cotton Aphid mortality (72 h) Mortality (%) (Aphis gossypii): 99%

CCOC(C)CCC1CCCC(OC2CCC(N(C)C)C(C)O2)C(C)C(=O)C2=CC3C4CC(OC5OC(C)C(OC)C(OC)C5OC)CC4CCC3C2CC(=O)O1 (stereo not drawn) [Compound A25]
Tobacco Budworm Typical (48 h) Mortality (%) (Heliothis virescens [1]; rate 1 µg/larva, 48 h): 83% | Cotton Aphid mortality (72 h) Mortality (%) (Aphis gossypii): 79%

CC=CC(CC(=O)OC)C1CCCC(OC2CCC(N(C)C)C(C)O2)C(C)C(=O)C2=CC3C(C=CC4CC(OC5OC(C)C(OC)C(OCC)C5OC)CC43)C2CC(=O)O1 (stereo not drawn) [Compound A27]
Tobacco Budworm Typical (48 h) Mortality (%) (Heliothis virescens [1]; rate 1 µg/larva, 48 h): 100% | Cotton Aphid mortality (72 h) Mortality (%) (Aphis gossypii): 33%

CC=CC(CC(=O)N(C)C)C1CCCC(OC2CCC(N(C)C)C(C)O2)C(C)C(=O)C2=CC3C(C=CC4CC(OC5OC(C)C(OC)C(OCC)C5OC)CC43)C2CC(=O)O1 (stereo not drawn) [Compound A28]
Tobacco Budworm Feeding (96 h) Mortality (%) (Heliothis virescens [2]; rate 400 ppm): 100% | Cotton Aphid mortality (72 h) Mortality (%) (Aphis gossypii): 48%

CCCCC1CCCC(OC2CCC(N(C)C)C(C)O2)C(C)C(=O)C2=CC3C4CC(OC5OC(C)C(OCC)C(OCC)C5OC)CC4CCC3C2CC(=O)O1 (stereo not drawn) [Compound B2, 5,6,22,23-tetrahydro-for-(3′,4′-bis-O-ethylrham)-I]
Tobacco Budworm Typical (48 h) Mortality (%) (Heliothis virescens [1]; rate 1 µg/larva, 48 h): 83% | Cotton Aphid mortality (72 h) Mortality (%) (Aphis gossypii): 97%

COC1C(C)OC(OC2CC3CCC4C5CC(=O)OC(CCC(C)O)CCCC(OC6CCC(N(C)C)C(C)O6)C(C)C(=O)C5=CC4C3C2)C(OC)C1OC (stereo not drawn) [Compound B17]
Tobacco Budworm Typical (48 h) Mortality (%) (Heliothis virescens [1]; rate 1 µg/larva, 48 h): 17% | Cotton Aphid mortality (72 h) Mortality (%) (Aphis gossypii): 11%

CC/C=C/[C@H]1CCC[C@H](OC2CC[C@H](N(C)C)[C@@H](C)O2)[C@@H](C)C(=O)C2=CC3C4C[C@H](O[C@@H]5O[C@@H](C)[C@H](OC)[C@@H](OC)[C@H]5OC)CC4C4OC4C3C2CC(=O)O1 (stereo partly drawn) [Compound C1, 5,6-epoxy-for-rham-I]
mortality at 400 ppm (Heliothis virescens [2]; rate 400 ppm): 100% | mortality at 50 ppm (Aphis gossypii): 95%

CCC=CC1CCCC(OC2CCC(N(C)CC)C(C)O2)C(C)C(=O)C2=CC3C(C=CC4CC(OC5OC(C)C(OC)C(OC)C5OC)CC43)C2CC(=O)O1 (stereo not drawn) [Compound D1]
Tobacco Budworm Typical (48 h) Mortality (%) (Heliothis virescens [1]; rate 1 µg/larva, 48 h): 83%

CC/C=C/C1CCC[C@H](O[C@H]2CC[C@H](N(C)C=O)[C@@H](C)O2)[C@@H](C)C(=O)C2=CC3C(C=CC4C[C@@H](O[C@@H]5O[C@@H](C)[C@H](OC)[C@@H](OC)[C@H]5OC)CC43)C2CC(=O)O1 (stereo partly drawn) [Compound D4, (N-formyl)-for-rham-I]
mortality at 400 ppm (Heliothis virescens [2]; rate 400 ppm): 100% | mortality at 50 ppm (Aphis gossypii): 92%

CCC=CC1CCCC(OC2CCC(N(C)C(C)=O)C(C)O2)C(C)C(=O)C2=CC3C(C=CC4CC(OC5OC(C)C(OC)C(OC)C5OC)CC43)C2CC(=O)O1 (stereo not drawn) [Compound D5]
Tobacco Budworm Feeding (96 h) Mortality (%) (Heliothis virescens [2]; rate 400 ppm): 100% | Cotton Aphid mortality (72 h) Mortality (%) (Aphis gossypii): 92%
